Tests used:
[1] = log Pow* calculated by Formula 2 from log Pow and the polarity parameter P′(x) of the ethanol/water mixture; conditions: solvent ethanol; for log Pow* (P′ 2%): proportion 2%; for log Pow* (P′ 4%): proportion 4%; for log Pow* (P′ 6%): proportion 6%; for log Pow* (P′ 8%): proportion 8%; for log Pow* (P′ 10%): proportion 10%; for log Pow* (P′ 30%): proportion 30%; for log Pow* (P′ 40%): proportion 40%; for log Pow* (P′ 50%): proportion 50%; for log Pow* (P′ 60%): proportion 60%; for log Pow* (P′ 70%): proportion 70%; for log Pow* (P′ 80%): proportion 80%; for log Pow* (P′ 90%): proportion 90%; for log Pow* (P′ 100%): proportion 100%
[2] = log Pow: distribution coefficient between 1-octanol and water; conditions: 1-octanol/water
Description: Log Pow*=log Pow*−x*P′(x)/log Pow Formula 2: • where log Pow is the decimal logarithm of the distribution coefficient of a substance between 1-octanol and water, • x is the resulting solvent proportion based on the total volume proportion, normalized as 1.0, and • P′(x) is the polarity parameter for the corresponding solvent for the solvent proportion x.

log Pow* (P′ 2%) [1] | log Pow* (P′ 4%) [1] | log Pow* (P′ 6%) [1] | log Pow* (P′ 8%) [1] | log Pow* (P′ 10%) [1] | log Pow* (P′ 30%) [1] | log Pow* (P′ 40%) [1] | log Pow* (P′ 50%) [1] | log Pow* (P′ 60%) [1] | log Pow* (P′ 70%) [1] | log Pow* (P′ 80%) [1] | log Pow* (P′ 90%) [1] | log Pow* (P′ 100%) [1] | log Pow [2] | Compound
4.35 | 4.31 | 4.27 | 4.23 | 4.20 | 3.91 | 3.80 | 3.71 | 3.64 | 3.57 | 3.52 | 3.47 | 3.42 | 4.40 | C/C=C/C(=O)C1=C(C)C=CCC1(C)C [beta-damascenone]
3.80 | 3.75 | 3.70 | 3.66 | 3.62 | 3.29 | 3.17 | 3.06 | 2.98 | 2.90 | 2.84 | 2.78 | 2.73 | 3.85 | CC(=O)/C=C/C1=C(C)CCCC1(C)C [beta-ionone]
2.34 | 2.26 | 2.19 | 2.12 | 2.05 | 1.52 | 1.33 | 1.17 | 1.03 | 0.92 | 0.81 | 0.72 | 0.64 | 2.42 | CCCCCC1CCCC(=O)O1 (centres unmarked) [delta decalactone]
2.30 | 2.22 | 2.14 | 2.07 | 2.00 | 1.47 | 1.27 | 1.11 | 0.97 | 0.85 | 0.75 | 0.65 | 0.57 | 2.38 | CCCCCCC1CCC(=O)O1 (centres unmarked) [gamma-decalactone]
3.99 | 3.94 | 3.90 | 3.86 | 3.82 | 3.50 | 3.39 | 3.29 | 3.21 | 3.14 | 3.08 | 3.02 | 2.98 | 4.04 | CC1=CCC(C(C)(C)S)CC1 (centres unmarked) [p-menthenethiol-1,8]
1.48 | 1.36 | 1.25 | 1.14 | 1.04 | 0.25 | −0.05 | −0.29 | −0.50 | −0.68 | −0.83 | −0.97 | −1.09 | 1.60 | Ethyldimethylpyrazine
1.99 | 1.90 | 1.82 | 1.74 | 1.66 | 1.05 | 0.83 | 0.64 | 0.48 | 0.35 | 0.23 | 0.12 | 0.03 | 2.09 | Isopropylmethoxypyrazine

Reference: patent US8394442B2, “Process for the preparation of a flavoring concentrate, and a flavoring concentrate” (SYMRISE AG, priority 2007, dated 2013)
